Results published in ChEMBL document CHEMBL3421607, “Design, synthesis and antibacterial activity of cinnamaldehyde derivatives as inhibitors of the bacterial cell division protein FtsZ” (Eur J Med Chem, 2015).
Converted amounts (≈) assume the structure as drawn.

These compounds were tested on Staphylococcus aureus (assay: Antibacterial activity against penicillin-resistant Staphylococcus aureus clinical isolates after 24 hrs by broth microdilution method). Conditions: not given.
Assay type: functional

`O=C(O)c1cn(C2CC2)c2cc(N3CCNCC3)c(F)cc2c1=O` [CIPROFLOXACIN] was tested. Which MIC did it give?
Its MIC is 8 µg/mL (≈ 24.1 µM).

How did the MIC turn out when `CCCCNC(=O)/C=C/c1ccc(C#N)cc1` was run?
Its MIC is greater than 128 µg/mL.

With `COc1cc(/C=C/C(=O)N(C)C)cc(OC)c1OC` as the compound, how does the MIC read?
The MIC was greater than 128 µg/mL.

With `CCN(CC)C(=O)/C=C/c1cc(OC)c(OC)c(OC)c1` as the compound, how does the MIC read?
Its MIC is 64 µg/mL (≈ 218 µM).

For `C#CCNC(=O)/C=C/c1ccc([N+](=O)[O-])cc1`, which MIC is on record?
Its MIC is greater than 128 µg/mL.

Each compound was assayed on Streptococcus pyogenes (assay: Antibacterial activity against penicillin-resistant Streptococcus pyogenes clinical isolates after 24 hrs by broth microdilution method). Conditions: not given.
Assay type: functional

`O=C(O)c1cn(C2CC2)c2cc(N3CCNCC3)c(F)cc2c1=O` [CIPROFLOXACIN] was tested. Which MIC did it give?
The MIC was greater than 128 µg/mL.

What follows are compounds tested on Streptococcus pyogenes (assay: Antibacterial activity against penicillin-susceptible Streptococcus pyogenes clinical isolates after 24 hrs by broth microdilution method). Conditions: not given.
Assay type: functional

With `O=C(O)c1cn(C2CC2)c2cc(N3CCNCC3)c(F)cc2c1=O` [CIPROFLOXACIN] as the compound, how does the MIC read?
The MIC was 8 µg/mL (≈ 24.1 µM).

Which MIC does the source give for `COc1cc(/C=C/C(=O)N(C)C)cc(OC)c1OC` here?
The MIC was greater than 128 µg/mL.

Which MIC does the source give for `CCN(CC)C(=O)/C=C/c1cc(OC)c(OC)c(OC)c1` here?
Its MIC is greater than 128 µg/mL.

The compounds below were run on Pseudomonas aeruginosa (assay: microbe, parasite or virus in culture). Conditions: ATCC 27853, 5 h.
Assay type: functional
Description: Inhibition of cell division in penicillin-susceptible Pseudomonas aeruginosa ATCC 27853 assessed as filamentation after 5 hrs by phase contrast microscopy

With `O=C(O)c1cn(C2CC2)c2cc(N3CCNCC3)c(F)cc2c1=O` [CIPROFLOXACIN] as the compound, how does the MIC read?
Its MIC is greater than 128 µg/mL.

How did the MIC turn out when `CCCCNC(=O)/C=C/c1ccc(C#N)cc1` was run?
The MIC was greater than 128 µg/mL.

With `COc1cc(/C=C/C(=O)N(C)C)cc(OC)c1OC` as the compound, how does the MIC read?
The MIC was 128 µg/mL (≈ 482 µM).

`CCN(CC)C(=O)/C=C/c1cc(OC)c(OC)c(OC)c1` was tested. Which MIC did it give?
The MIC was 128 µg/mL (≈ 436 µM).

Which MIC does the source give for `C#CCNC(=O)/C=C/c1ccc([N+](=O)[O-])cc1` here?
Its MIC is greater than 128 µg/mL.

The compounds below were run on Staphylococcus aureus (assay: microbe, parasite or virus in culture). Conditions: ATCC 25923, 24 h.
Assay type: functional
Description: Antibacterial activity against penicillin-susceptible Staphylococcus aureus ATCC 25923 after 24 hrs by broth microdilution method

Which MIC does the source give for `O=C(O)c1cn(C2CC2)c2cc(N3CCNCC3)c(F)cc2c1=O` [CIPROFLOXACIN] here?
Its MIC is 8 µg/mL (≈ 24.1 µM).

For `CCCCNC(=O)/C=C/c1ccc(C#N)cc1`, which MIC is on record?
Its MIC is greater than 128 µg/mL.

How did the MIC turn out when `COc1cc(/C=C/C(=O)N(C)C)cc(OC)c1OC` was run?
Its MIC is greater than 128 µg/mL.

With `CCN(CC)C(=O)/C=C/c1cc(OC)c(OC)c(OC)c1` as the compound, how does the MIC read?
Its MIC is 64 µg/mL (≈ 218 µM).

With `C#CCNC(=O)/C=C/c1ccc([N+](=O)[O-])cc1` as the compound, how does the MIC read?
The MIC was greater than 128 µg/mL.

Each compound was assayed on Bacillus subtilis (assay: microbe, parasite or virus in culture). Conditions: ATCC 9372, 5 h.
Assay type: functional
Description: Inhibition of cell division in penicillin-susceptible Bacillus subtilis ATCC 9372 assessed as filamentation after 5 hrs by phase contrast microscopy

With `O=C(O)c1cn(C2CC2)c2cc(N3CCNCC3)c(F)cc2c1=O` [CIPROFLOXACIN] as the compound, how does the MIC read?
Its MIC is greater than 128 µg/mL.

How did the MIC turn out when `CCCCNC(=O)/C=C/c1ccc(C#N)cc1` was run?
Its MIC is greater than 128 µg/mL.

`COc1cc(/C=C/C(=O)N(C)C)cc(OC)c1OC` was tested. Which MIC did it give?
The MIC was greater than 128 µg/mL.

For `CCN(CC)C(=O)/C=C/c1cc(OC)c(OC)c(OC)c1`, which MIC is on record?
The MIC was 128 µg/mL (≈ 436 µM).

With `C#CCNC(=O)/C=C/c1ccc([N+](=O)[O-])cc1` as the compound, how does the MIC read?
Its MIC is greater than 128 µg/mL.

The compounds below were run on Pseudomonas aeruginosa (assay: microbe, parasite or virus in culture). Conditions: ATCC 27853, 24 h.
Assay type: functional

How did the MIC turn out when `O=C(O)c1cn(C2CC2)c2cc(N3CCNCC3)c(F)cc2c1=O` [CIPROFLOXACIN] was run?
Its MIC is 4 µg/mL (≈ 12.1 µM).

`CCCCNC(=O)/C=C/c1ccc(C#N)cc1` was tested. Which MIC did it give?
The MIC was greater than 128 µg/mL.

Which MIC does the source give for `COc1cc(/C=C/C(=O)N(C)C)cc(OC)c1OC` here?
Its MIC is 128 µg/mL (≈ 482 µM).

`CCN(CC)C(=O)/C=C/c1cc(OC)c(OC)c(OC)c1` was tested. Which MIC did it give?
Its MIC is 128 µg/mL (≈ 436 µM).

Which MIC does the source give for `C#CCNC(=O)/C=C/c1ccc([N+](=O)[O-])cc1` here?
Its MIC is greater than 128 µg/mL.

What follows are compounds tested on Staphylococcus aureus (assay: microbe, parasite or virus in culture). Conditions: ATCC 29213, 24 h.
Assay type: functional
Description: Antibacterial activity against methicillin-resistant Staphylococcus aureus ATCC 29213 after 24 hrs by broth microdilution method

How did the MIC turn out when `O=C(O)c1cn(C2CC2)c2cc(N3CCNCC3)c(F)cc2c1=O` [CIPROFLOXACIN] was run?
The MIC was 4 µg/mL (≈ 12.1 µM).

`CCCCNC(=O)/C=C/c1ccc(C#N)cc1` was tested. Which MIC did it give?
The MIC was greater than 128 µg/mL.

`COc1cc(/C=C/C(=O)N(C)C)cc(OC)c1OC` was tested. Which MIC did it give?
Its MIC is greater than 128 µg/mL.

For `CCN(CC)C(=O)/C=C/c1cc(OC)c(OC)c(OC)c1`, which MIC is on record?
The MIC was greater than 128 µg/mL.

`C#CCNC(=O)/C=C/c1ccc([N+](=O)[O-])cc1` was tested. Which MIC did it give?
The MIC was greater than 128 µg/mL.

What follows are compounds tested on Bacillus subtilis (assay: microbe, parasite or virus in culture). Conditions: ATCC 9372, 24 h.
Assay type: functional
Description: Antibacterial activity against penicillin-susceptible Bacillus subtilis ATCC 9372 after 24 hrs by broth microdilution method

`O=C(O)c1cn(C2CC2)c2cc(N3CCNCC3)c(F)cc2c1=O` [CIPROFLOXACIN] was tested. Which MIC did it give?
The MIC was 8 µg/mL (≈ 24.1 µM).

For `CCCCNC(=O)/C=C/c1ccc(C#N)cc1`, which MIC is on record?
The MIC was greater than 128 µg/mL.

`COc1cc(/C=C/C(=O)N(C)C)cc(OC)c1OC` was tested. Which MIC did it give?
The MIC was 128 µg/mL (≈ 482 µM).

For `CCN(CC)C(=O)/C=C/c1cc(OC)c(OC)c(OC)c1`, which MIC is on record?
The MIC was 128 µg/mL (≈ 436 µM).

How did the MIC turn out when `C#CCNC(=O)/C=C/c1ccc([N+](=O)[O-])cc1` was run?
Its MIC is greater than 128 µg/mL.

The compounds below were run on Escherichia coli (assay: microbe, parasite or virus in culture). Conditions: ATCC 25922, 24 h.
Assay type: functional
Description: Antibacterial activity against penicillin-susceptible Escherichia coli ATCC 25922 after 24 hrs by broth microdilution method

`CCCCNC(=O)/C=C/c1ccc(C#N)cc1` was tested. Which MIC did it give?
Its MIC is greater than 128 µg/mL.

Which MIC does the source give for `COc1cc(/C=C/C(=O)N(C)C)cc(OC)c1OC` here?
The MIC was 128 µg/mL (≈ 482 µM).

With `CCN(CC)C(=O)/C=C/c1cc(OC)c(OC)c(OC)c1` as the compound, how does the MIC read?
The MIC was 128 µg/mL (≈ 436 µM).

With `C#CCNC(=O)/C=C/c1ccc([N+](=O)[O-])cc1` as the compound, how does the MIC read?
The MIC was greater than 128 µg/mL.

Each compound was assayed on Escherichia coli (assay: microbe, parasite or virus in culture). Conditions: ATCC 25922, 5 h.
Assay type: functional
Description: Inhibition of cell division in penicillin-susceptible Escherichia coli ATCC 25922 assessed as filamentation after 5 hrs by phase contrast microscopy

Which MIC does the source give for `O=C(O)c1cn(C2CC2)c2cc(N3CCNCC3)c(F)cc2c1=O` [CIPROFLOXACIN] here?
The MIC was greater than 128 µg/mL.

Which MIC does the source give for `CCCCNC(=O)/C=C/c1ccc(C#N)cc1` here?
The MIC was greater than 128 µg/mL.

How did the MIC turn out when `COc1cc(/C=C/C(=O)N(C)C)cc(OC)c1OC` was run?
The MIC was 128 µg/mL (≈ 482 µM).

How did the MIC turn out when `CCN(CC)C(=O)/C=C/c1cc(OC)c(OC)c(OC)c1` was run?
The MIC was 128 µg/mL (≈ 436 µM).

How did the MIC turn out when `C#CCNC(=O)/C=C/c1ccc([N+](=O)[O-])cc1` was run?
Its MIC is greater than 128 µg/mL.

The compounds below were run on Staphylococcus epidermidis (assay: Antibacterial activity against penicillin-resistant Staphylococcus epidermidis clinical isolates after 24 hrs by broth microdilution method). Conditions: not given.
Assay type: functional

For `O=C(O)c1cn(C2CC2)c2cc(N3CCNCC3)c(F)cc2c1=O` [CIPROFLOXACIN], which MIC is on record?
The MIC was greater than 128 µg/mL.

Which MIC does the source give for `COc1cc(/C=C/C(=O)N(C)C)cc(OC)c1OC` here?
Its MIC is greater than 128 µg/mL.

`CCN(CC)C(=O)/C=C/c1cc(OC)c(OC)c(OC)c1` was tested. Which MIC did it give?
The MIC was greater than 128 µg/mL.

Each compound was assayed on Staphylococcus aureus (assay: microbe, parasite or virus in culture). Conditions: ATCC 25923, 5 h.
Assay type: functional
Description: Inhibition of cell division in penicillin-susceptible Staphylococcus aureus ATCC 25923 assessed as ballooning after 5 hrs by phase contrast microscopy

Which MIC does the source give for `O=C(O)c1cn(C2CC2)c2cc(N3CCNCC3)c(F)cc2c1=O` [CIPROFLOXACIN] here?
The MIC was greater than 128 µg/mL.

How did the MIC turn out when `CCCCNC(=O)/C=C/c1ccc(C#N)cc1` was run?
The MIC was greater than 128 µg/mL.

With `COc1cc(/C=C/C(=O)N(C)C)cc(OC)c1OC` as the compound, how does the MIC read?
Its MIC is greater than 128 µg/mL.

For `CCN(CC)C(=O)/C=C/c1cc(OC)c(OC)c(OC)c1`, which MIC is on record?
The MIC was 32 µg/mL (≈ 109 µM).

`C#CCNC(=O)/C=C/c1ccc([N+](=O)[O-])cc1` was tested. Which MIC did it give?
Its MIC is greater than 128 µg/mL.
